# Test results from patent publication US9597391B2, “Cyclic-dinucleotides and its conjugates as adjuvants and their uses in pharmaceutical compositions” (HELMHOLTZ_ZENTRUM FUER INFEKTIONSFORSCHUNG GMBH, priority 2005, dated 2017).
# Columns and labels:
# Type in all cases: in vivo
# BALB/c (H-2d) mice [1] = test: Serum β-gal-specific IgG ELISA after i.n. or s.c. immunization with β-gal plus adjuvant; conditions: i.n., β-gal 30 μg/dose with or without adjuvant 10 μg; end point titers (FIG. 11; FIG. 2)
# Procedure: Experimental protocol: six-eight weeks-old female BALB/c (H-2d) mice were purchased from Harlan Winkelmann GmbH (Borchen, Germany) and treated in accordance with local and European Community guidelines. Groups of 5 mice each were immunized on day 1, 14 and 28 with 30 μg of β-gal (Boehringer, Mannheim, Germany), alone or as an admixture with 10 μg c-diGMP or with 10 μpg c-diAMP. For intranasal (i.n.) immunization, 10 μl were applied to each naris, whereas for the s.c. injection β-gal with or without c-diGMP or c-diAMP was resuspended in a volume of 20 μl PBS per animal. Serum samples were collected at day 38 after immunization and stored at −20° C. prior to determination of β-gal-specific antibodies. 96-well Nunc-Immuno MaxiSorp assay plates (Nunc, Roskilde, Denmark) were coated with 100 μl of β-gal (Boehringer, Mannheim, Germany) at 5 μg/ml in 0.05 M carbonate buffer (pH 8.2) per well. Serial two-fold dilutions of sera in PBS with 1% BSA and 0.05% Tween 20 were added (100 μl/well), and plates incubated for 16h at 37° C. After washing, biotinylated γ-chain-specific goat anti-mouse IgG (Sigma Chemie, Deisenhofen, Germany) was added, and plates were incubated for an additional 1 h at 37° C. After four washes, 100 μl of peroxidase-conjugated streptavidin (Pharmingen) was added to cells and plates incubated at 37° C. for 30 min. After four washes, reactions were developed with ABTS in 0.1 M citrate-phosphate buffer (pH 4.35) containing 0.01% H2O2. Results for c-diGMP are shown as OD405 values after serial two-fold dilutions (FIG. 2). […] The effect of c-diGMP as an adjuvant was independent of the route of administration.
# In contrast, in the presence of c-diAMP, i.n. administration of β-gal induced very high titers of specific IgG in all mice with titers higher than 500,000 (FIG. 11).
# In view of the above in vitro results, additional in vivo studies have been conducted. […] Thus, the capacity of c-diGMP and c-diAMP, respectively, to stimulate efficient humoral immune responses was evaluated, by determining the serum titers of β-gal-specific antibodies in vaccinated mice.
# BALB/c (H-2d) mice [2] = test: β-gal-specific IgA in lung and vaginal lavages of immunized mice; conditions: i.n. immunization, day 38, versus β-gal alone (FIG. 4, FIG. 5)
# Procedure: Experimental protocol: at day 38, mice were sacrificed and the final sampling was performed. Vaginal and lung lavages were obtained by flushing the organs with 1 ml of PBS supplemented with 50 mM EDTA, 0.1% BSA, and 10 mM PMSF. Lavages were then centrifuged to remove debris (10 min at 3000×g), and supernatant fluids were stored at −20° C. To determine the concentration of total IgA present in the lung and vaginal lavages, serial dilutions of the corresponding samples were incubated in microtiter plates that were previously coated with goat anti-mouse IgA (Sigma Chemie), as capture antibodies (100 μl/well). Serial dilutions of purified mouse IgA (Sigma Chemie) were used to generate a standard curve.
# To investigate the capacity of c-diGMP and c-diAMP, respectively, to stimulate mucosal responses against antigens co-administered by the i.n. and s.c. route, the production of β-gal-specific IgA in lung was analyzed (FIG. 5 for c-diAMP and FIG. 4 for c-diGMP) from immunized animals, immunized according to the protocol described in Example 2.
# spleen cells [3] = test: [3H]thymidine proliferation of spleen cells from vaccinated mice restimulated in vitro with β-gal; conditions: day 38, in vitro restimulation with β-gal
# Procedure: Experimental protocol: Spleens were removed and pooled for analysis of cellular immune responses. Cells were grown in RPMI 1640 supplemented with 10% fetal calf serum, 100 U/ml of penicillin, 50 μg/ml of streptomycin, 5×10^−5 M 2-mercaptoethanol and 1 mM L-glutamine (GIBCO BRL, Karlsruhe, Germany) and maintained at 37° C. in a humidified 5% CO2 atmosphere. Spleen cell suspensions were adjusted to 5×10^6 cells/ml in complete medium, cells were seeded with 100 μl per well in a flat-bottomed 96-well microtiter plate (Nunc) and plates were incubated for 4 days in the presence of different concentrations of soluble β-gal. That is, T cell mediated immune responses were investigated at day 38 by measuring the proliferation after in vitro restimulation with β-Gal of cells which have been recovered from spleens before. Said spleen cells were obtained from vaccinated mice—said mice where immunized as described in Example 2—and incubated in the presence of different concentrations of the soluble β-Gal antigen. Each concentration was tested in quadruplicates. During the final 18 h of culture, 1 μCi of [3H]thymidine (Amersham International, Freiburg, Germany) was added to each well. Cells were then harvested on paper filters (Filtermat A; Wallac, Freiburg, Germany) by using a cell harvester (Inotech, Wohlen, Switzerland), and the amount of incorporated [3H]thymidine into the DNA of proliferating cells was determined by a β-scintillation counter (Wallac 1450, Micro-Trilux). The results are expressed as the arithmetic mean of [^3H]thymidine uptake in cpm.
# Thirty eight days following vaccination, spleens cells were purified, re-stimulated in vitro in the presence of various amounts of β-galactosidase and their proliferative capacity was estimated by measuring the incorporation of [3H]thymidine into their DNA using a β-scintillation counter.
# spleen cells [4] = test: ELISPOT of cytokine producing spleen cells from vaccinated mice; conditions: i.n.; restimulation with CD8 epitope peptide (FIG. 10)
# Procedure: Experimental protocol: Spleens from vaccinated mice were removed and pooled for analysis of cellular immune responses. The protocol for vaccination was identical to the protocol described in Example 2. Cells were grown in RPMI 1640 supplemented with 10% fetal calf serum, 100 U/ml of penicillin, 50 μg/ml of streptomycin, 5×10^−5 M 2-mercaptoethanol and 1 mM L-glutamine (GIBCO BRL, Karlsruhe, Germany) and maintained at 37° C. in a humidified 5% CO2 atmosphere. […]
# For coating ELISPOT plates, said plates were incubated with 100 μl/well of purified capture antibody (10 μg/ml in coating buffer) at 4° C. overnight. After 6× washing steps, the plates were blocked with 200 μl/well of complete RPMI-1640 at room temperature for 1 hour. The activated cells were seeded at 100 μl per well and incubate at 37° C., in a 5% CO2 humidified incubator for 24 hours or 48h hours. After 5× washing steps with washing buffer and 1× step with distilled water, 100 μl/well of the biotinylated detection antibody with a concentration of 1 μg/ml in Assay Diluent was added and incubated at room temperature for 2 hrs. After further washing steps 100 μl/well of the AV-HRP at 1/1000 dilution in Assay Diluent was added and incubated at room temperature for 30 minutes. After further washing steps 100 μl/well of AEC Substrate Solution was added and developed at room temperature for 10-60 minutes until visible spots appeared. After washing steps with (3×) with 200 μl/well distilled water, the plates were air-dried and analyzed by counting the spots by an ELISPOT reader. Each concentration was tested in triplicates.
substance,measurement,setting,value
"β-gal: soluble model antigen β-galactosidase (Boehringer), given alone as comparator without adjuvant","β-gal specific IgG titer in sera, i.n. administration",BALB/c (H-2d) mice [1],very low antibody titers
same,β-gal-specific IgA in lung lavages,BALB/c (H-2d) mice [2],weak production
same,"proliferation of spleen cells, i.n. immunization","spleen cells [3]; i.n., low amounts of antigen (FIG. 6)",failed to induce detectable cellular proliferation
same,"proliferation of spleen cells, s.c. immunization","spleen cells [3]; s.c., [3H]thymidine (FIG. 6)",significant proliferative response
same,"IFNγ producing cells, i.n. vaccination",spleen cells [4],scarcely detectable
